According to patent US20060262149A1, “Ink jet ink and recording material” (priority 2005, published 2006):

Key:
[1] = Light fastness of magenta ink jet prints on stabilizer-treated Konica QP paper, 100% print density (Example 5); details: HP DeskJet 970 Cxi, stabilizer 650-700 mg/m^2 on Konica QP paper, office fluorescent lighting, None = 25.73
Experimental: (§1) A resin-coated paper impregnated with inorganic adsorbent particles (Konica QP Photoglossy ink jet paper, Konica Corp.) is purchased. On the ink-receiving layer, a 0.8 wt % methanol solution of the instant compounds is applied in an amount to achieve 650-700 mg/m^2. The paper is allowed to dry under ambient temperature and pressure for 24 hours.
Separately, test patterns (magenta) are printed on the treated sheets using a Hewlett Packard DeskJet 970 Cxi printer at 100% print density. The obtained prints are left to dry at ambient temperature and pressure for 24 hours.
(§2) Color densities and CIEL*a*b coordinates before and after exposure are measured using X-Rite 938 Spectrodensitometer. Exposures are carried out using normal office fluorescent lighting. The change in color is given by Delta E (DE) which is calculated by: DE=[(DL*)^2+(Da*)^2+(Db*)^2]^1/2

[2] = Light fastness of cyan, magenta and yellow ink jet prints on stabilizer-treated Konica QP paper, 50% print density (Example 6); details: HP DeskJet 970 Cxi, stabilizer 650-700 mg/m^2, office fluorescent lighting; for DE for magenta after 4 weeks: None = 20.16; for DE for yellow after 4 weeks: None = 4.68
Experimental: as §2
as §1, with “hours. Separately, test patterns (cyan, magenta and yellow) are printed on the treated sheets using a Hewlett Packard DeskJet 970 Cxi printer at 50% print density. The obtained prints are left to dry at ambient temperature and pressure for 24 hours.” for “hours.”
Color densities and CIEL*a*b coordinates before and after exposure are measured using X-Rite 938 Spectrodensitometer. Exposures are carried out using normal office fluorescent lighting.

| Compound | DE for magenta after 4 weeks [1] | DE for magenta after 4 weeks [2] | DE for yellow after 4 weeks [2] | DE for cyan after 4 weeks ([2]; cyan, None = 7.29) |
| --- | --- | --- | --- | --- |
| CC(C)(O)CON1C(C)(C)CC(O)CC1(C)C [Instant Example 1] | 18.39 | 17.82 | 1.81 | – |
| CC(C)(O)CON1C(C)(C)CC(O)CC1(C)C [Instant Example 2] | 20.89 | 16.71 | 2.48 | 6.64 |
